US11419806B2, “Prebiotic oral care methods using a saccharide” (Colgate-Palmolive Company, priority 2013, dated 2022)

Key:
Type in all cases: cell-based
A. naeslundii = assay: Twenty-four hour biofilm growth (crystal violet)
Method: (§1) The increase in biofilm formation of the tested bacteria in response to selected saccharides (D-turanose, D-lactitol, myo-inositol, and N-acetyl-D-mannosamine) was investigated by setting up biofilm growth assays in a nutritionally rich medium (brain heart infusion broth (BHI), Oxoid), over 24 hours. Late exponential growth phase liquid cultures were prepared by transferring the respective bacterium from blood agar plates to BHI and overnight incubation at 37° C. in an anaerobic atmosphere for A. viscosus, V. parvula, P. gingivalis, P. intermedia, T. forsythia, A. naeslundii, and C. sputigena, and in a 5% CO2 environment for S. salivarius, S. sanguinis, S. mitis, A. actinomycetemcomitans, S. mutans, and S. gordonii. Overnight cultures were transferred to BHI and adjusted to a concentration of 1×10^7 CFU/ml by measuring the optical density at 600 nm (OD600) (BioRad SmartSpec 3000). For each strain, 200 μl of the bacterial suspension was added to a 96-well plate containing 20 μl of the respective saccharides. Final concentrations of the saccharides were set to 5, 10, 20 and 25 μmol/ml. […] Additionally, for each bacterium tested, a background control, to correct for background staining, was added. This background control contained the bacterium tested and 0.03 weight % chlorhexidine, as an antiseptic. Plates were incubated as previously described. After 24 hrs the supernatant was removed from the wells of the plates. The wells were washed twice with 1×100 μL PBS (phosphate buffered saline), fixed for 20 minutes with 96% vol. ethanol (96% vol. solution in water) and the biofilm retained at the bottom of the wells was stained with 1 weight % crystal violet (1 weight % solution in water). The bound dye was dissolved with 5% vol. acetic acid (5% vol. solution in water). Quantification of the stained biofilm was performed by measuring the absorbance at 630 nm using a Multiskan Ascent microplate reader (Thermo Scientific).
(§2) The experiment was carried out on three different days (thus providing 3 biological replicas) and each day the experiment was carried out in quadruple (thus providing 4 technical replicas) for each combination of bacterium with saccharide and for each control. For each day and for each combination, the average (mean) of the values obtained (as detailed above) for the four technical replicas was calculated to provide a single value for each combination on each day. The values shown in Tables 7a, 7b, 8a, 8b, below, are the average (mean) of the three single values obtained for each combination of bacterium with saccharide.

P. intermedia = assay: Twenty-four hour biofilm growth (crystal violet)
Method: as §1, §2

S. mutans = assay: Twenty-four hour biofilm growth (crystal violet); settings: for biofilm growth: OD 630 nm at 24 hrs divided by OD of control (control = 1): S mutans
Method: as §1, §2

A. actinomycetemcomitans = assay: Twenty-four hour biofilm growth (crystal violet)
Method: as §1, §2

V. parvula = assay: Twenty-four hour biofilm growth (crystal violet)
Method: as §1, §2

S. gordonii = assay: Twenty-four hour biofilm growth (crystal violet)
Method: as §1, §2

P. gingivalis = assay: Twenty-four hour biofilm growth (crystal violet)
Method: as §1, §2

C. sputigena = assay: Twenty-four hour biofilm growth (crystal violet)
Method: as §1, §2

T. forsythia = assay: Twenty-four hour biofilm growth (crystal violet)
Method: as §1, §2

A. viscosus = assay: Twenty-four hour biofilm growth (crystal violet)
Method: as §1, §2

[1] = system: beneficial oral bacteria and pathogenic oral bacteria; assay: Twenty-four hour optical density, overall prebiotic assessment; settings: concentrations of 10, 20 and 25 μmol/ml
Excerpt: Substrates that were able to increase the growth (or maximal growth density or extent of growth) of at least one of the above beneficial bacteria while not or only minimally increasing the growth (or maximal growth density) of the pathogenic bacteria are considered to be prebiotic compounds.
The extent of growth of the tested bacteria in response to selected saccharides (myo-inositol, D-lactitol, D-turanose and N-acetyl-D-mannosamine) was investigated by setting up growth curves in a nutritionally rich medium (brain heart infusion broth (BHI), Oxoid), over 24 hours. Late exponential growth phase liquid cultures were prepared by transferring the respective bacterium from blood agar plates to BHI and overnight incubation at 37° C. in an anaerobic atmosphere for A. viscosus, V. parvula, F. nucleatum, P. gingivalis, P. intermedia, T. forsythia, A. naeslundii, and C. sputigena, and in a 5% CO2 environment for S. salivarius, S. sanguinis, S. mitis, A. actinomycetemcomitans, S. mutans, S. sobrinus and S. gordonii. […]
For each combination of bacterium/saccharide, and for each of their respective controls (i.e. the particular bacterium in the nutritionally rich medium with no saccharide), the optical density was measured at 630 nm (OD630) at 0 h and 24 h (Thermo Scientific Multiskan Ascent). Additionally, the OD630 for combinations of bacterium/saccharides grown in a 5% CO2 environment were also measured every hour between 0 h and 9 h.
as §2, with “replicas) and on each day” for “replicas) and each day”, “each day. […]” for “each day. The values shown in Tables 7a, 7b, 8a, 8b, below, are the average (mean) of the three single values obtained for each combination of bacterium with saccharide.”

In the case of `OC[C@@H](O)[C@@H](O[C@H]1O[C@H](CO)[C@H](O)[C@H](O)[C@H]1O)[C@H](O)[C@@H](O)CO` [D-Lactitol, 4-O-α-D-galactopyranosyl-D-glucitol], the “biofilm growth: OD 630 nm at 24 hrs divided by OD of control (control = 1)” value (A. naeslundii; 5 μmol/ml) is reported as 1.0191, the “biofilm growth: OD 630 nm at 24 hrs divided by OD of control (control = 1)” value (A. naeslundii; 10 μmol/ml) is reported as 1.0015 and the “biofilm growth: OD 630 nm at 24 hrs divided by OD of control (control = 1)” value (A. naeslundii; 20 μmol/ml) is reported as 1.0337. The “biofilm growth: OD 630 nm at 24 hrs divided by OD of control (control = 1)” value (A. naeslundii; 25 μmol/ml) was 1.0428, the “biofilm growth: OD 630 nm at 24 hrs divided by OD of control (control = 1)” value (P. intermedia; 5 μmol/ml) was 1.0504 and the “biofilm growth: OD 630 nm at 24 hrs divided by OD of control (control = 1)” value (P. intermedia; 10 μmol/ml) was 1.0396. For the same compound, the “biofilm growth: OD 630 nm at 24 hrs divided by OD of control (control = 1)” value (P. intermedia; 20 μmol/ml) was 1.1500, the “biofilm growth: OD 630 nm at 24 hrs divided by OD of control (control = 1)” value (P. intermedia; 25 μmol/ml) was 1.1288 and the “stimulation of biofilm formation of S. mutans” value (S. mutans; Example 3) was “does not stimulate”. For the same compound, the “biofilm growth: OD 630 nm at 24 hrs divided by OD of control (control = 1)” value (S. mutans; 5 μmol/ml) was 0.9767, the “biofilm growth: OD 630 nm at 24 hrs divided by OD of control (control = 1)” value (S. mutans; 10 μmol/ml) was 0.9333 and the “biofilm growth: OD 630 nm at 24 hrs divided by OD of control (control = 1)” value (S. mutans; 20 μmol/ml) was 1.1068. The “biofilm growth: OD 630 nm at 24 hrs divided by OD of control (control = 1)” value (S. mutans; 25 μmol/ml) was 1.0108, the “biofilm growth: OD 630 nm at 24 hrs divided by OD of control (control = 1)” value (A. actinomycetemcomitans; 5 μmol/ml) was 0.6593 and the “biofilm growth: OD 630 nm at 24 hrs divided by OD of control (control = 1)” value (A. actinomycetemcomitans; 10 μmol/ml) was 0.6496. For the same compound, the “biofilm growth: OD 630 nm at 24 hrs divided by OD of control (control = 1)” value (A. actinomycetemcomitans; 20 μmol/ml) was 0.8502, the “biofilm growth: OD 630 nm at 24 hrs divided by OD of control (control = 1)” value (A. actinomycetemcomitans; 25 μmol/ml) was 0.8372 and the “biofilm growth: OD 630 nm at 24 hrs divided by OD of control (control = 1)” value (V. parvula; 5 μmol/ml) was 1.0022. For the same compound, the “biofilm growth: OD 630 nm at 24 hrs divided by OD of control (control = 1)” value (V. parvula; 10 μmol/ml) was 1.0212, the “biofilm growth: OD 630 nm at 24 hrs divided by OD of control (control = 1)” value (V. parvula; 20 μmol/ml) was 0.9658 and the “biofilm growth: OD 630 nm at 24 hrs divided by OD of control (control = 1)” value (V. parvula; 25 μmol/ml) was 0.9859. The “biofilm growth: OD 630 nm at 24 hrs divided by OD of control (control = 1)” value (S. gordonii; 5 μmol/ml) was 0.6036, the “biofilm growth: OD 630 nm at 24 hrs divided by OD of control (control = 1)” value (S. gordonii; 10 μmol/ml) was 0.5959 and the “biofilm growth: OD 630 nm at 24 hrs divided by OD of control (control = 1)” value (S. gordonii; 20 μmol/ml) was 0.4885. For the same compound, the “biofilm growth: OD 630 nm at 24 hrs divided by OD of control (control = 1)” value (S. gordonii; 25 μmol/ml) was 0.5149, the “biofilm growth: OD 630 nm at 24 hrs divided by OD of control (control = 1)” value (P. gingivalis; 5 μmol/ml) was 0.9536 and the “biofilm growth: OD 630 nm at 24 hrs divided by OD of control (control = 1)” value (P. gingivalis; 10 μmol/ml) was 0.9616. For the same compound, the “biofilm growth: OD 630 nm at 24 hrs divided by OD of control (control = 1)” value (P. gingivalis; 20 μmol/ml) was 0.8995, the “biofilm growth: OD 630 nm at 24 hrs divided by OD of control (control = 1)” value (P. gingivalis; 25 μmol/ml) was 0.9701 and the “biofilm growth: OD 630 nm at 24 hrs divided by OD of control (control = 1)” value (C. sputigena; 5 μmol/ml) was 0.5867. The “biofilm growth: OD 630 nm at 24 hrs divided by OD of control (control = 1)” value (C. sputigena; 10 μmol/ml) was 0.5658, the “biofilm growth: OD 630 nm at 24 hrs divided by OD of control (control = 1)” value (C. sputigena; 20 μmol/ml) was 0.6841 and the “biofilm growth: OD 630 nm at 24 hrs divided by OD of control (control = 1)” value (C. sputigena; 25 μmol/ml) was 0.7591. The “biofilm growth: OD 630 nm at 24 hrs divided by OD of control (control = 1)” value (T. forsythia; 5 μmol/ml) was 0.5843, the “biofilm growth: OD 630 nm at 24 hrs divided by OD of control (control = 1)” value (T. forsythia; 10 μmol/ml) was 0.5942 and the “biofilm growth: OD 630 nm at 24 hrs divided by OD of control (control = 1)” value (T. forsythia; 20 μmol/ml) was 0.7398. The “biofilm growth: OD 630 nm at 24 hrs divided by OD of control (control = 1)” value (T. forsythia; 25 μmol/ml) was 0.6158, the “biofilm growth: OD 630 nm at 24 hrs divided by OD of control (control = 1)” value (A. viscosus; 5 μmol/ml) was 0.6832 and the “biofilm growth: OD 630 nm at 24 hrs divided by OD of control (control = 1)” value (A. viscosus; 10 μmol/ml) was 0.7502. The “biofilm growth: OD 630 nm at 24 hrs divided by OD of control (control = 1)” value (A. viscosus; 20 μmol/ml) was 0.9528, the “biofilm growth: OD 630 nm at 24 hrs divided by OD of control (control = 1)” value (A. viscosus; 25 μmol/ml) was 0.9153 and the “prebiotic effects (extent of growth, threshold value 1.25)” value [1] was “exhibited prebiotic effects”.
